Data published in PMC7477582, “Context dependent effects of ascorbic acid treatment in TET2 mutant myeloid neoplasia” (Communications Biology, 2020).

Molecular target: T1, TET2 catalytic domain (TET2CD) (Homo sapiens, UniProt Q6N021, DEL1481-1843)
T1 construct: GST-TET2CD (1099–1936 Del-insert), expressed in E. coli; also GST tag free TET2CD
Test: SPR (Biacore […]), GST-TET2CD captured by anti-GST on CM5 chip; supported by Kd […] on 5mC-DNA-captured TET2CD and 5hmC ELISA EC50 […]
Type: binding

For `O=C1O[C@H]([C@@H](O)CO)C(O)=C1O` [AA, Ascorbic acid], the Kd was 9.1 ± 2.3 µM.
